Organism: Rattus norvegicus
Assay: Evaluated for the efficacy in stimulating cAMP synthesis by beta-1-adrenoceptor in rat cerebral cortex.
Format: functional

SMILES | Efficacy
CC(=O)Oc1ccc(C(Cl)CNC(C)C)cc1OC(C)=O (configuration not stated) | 1
CC(=O)Oc1ccc(C(O)CNC(C)C)cc1OC(C)=O (configuration not stated) [DIACETYLISOPROTERENOL] | 1

— ChEMBL document CHEMBL1122882, “3,4-O-diacetylisoproterenol. Preparation, structure proof, and beta-receptor effect” (1985)
